Test results: patent publication US10912840B2, “Conjugates for treating diseases caused by PSMA expressing cells” (priority 2012, dated 2021)
Entries after “also recorded” stand apart in the source; their conditions may differ. Read-outs that look alike come from different tables or passages of the source.

Legend:
LNCaP cells = details: human
Procedure: LNCaP cells are seeded in 24-well Corning Cell-BIND plates and allowed to form nearly confluent monolayers overnight in RPMI/HIFCS. Thirty minutes prior to the addition of test compound, such as a compound described herein, spent medium is aspirated from all wells and replaced with fresh RPMI. Following one rinse with 1 mL of fresh RPMI/HIFCS, each well receives 1 mL of media containing increasing concentrations of test compound (four wells per sample). Test compound treated cells are pulsed for 2 h at 37° C., rinsed four times with 0.5 mL of media, and then chased in 1 mL of fresh media up to 70 h. Spent media is aspirated from all wells and replaced with fresh media containing 5 μCi/mL ^3H-thymidine. Following a further 4 h 37° C. incubation, cells are washed three times with 0.5 mL of PBS and then treated with 0.5 mL of ice-cold 5% trichloroacetic acid per well. After 15 min, the trichloroacetic acid is aspirated and the cells are solubilized by the addition of 0.5 mL of 0.25 N sodium hydroxide for 15 min. Four hundred and fifty microliters of each solubilized sample is transferred to scintillation vials containing 3 mL of Ecolume scintillation cocktail and then counted in a liquid scintillation counter. Final tabulated results are expressed as the percentage of ^3H-thymidine incorporation relative to untreated controls.

[1] = Gross toxicity (body weight change) in LNCaP tumor-bearing mice
Procedure: Four to seven week-old male nu/nu mice (Harlan Sprague Dawley. Inc., Indianapolis, Ind.) are maintained on a standard 12 h light-dark cycle and fed ad libitum with rodent diet #2918 (Harlan Teklad, Madison, Wis.) for the duration of the experiment. LNCaP cells are grown in RPMI in 10% HIFCS at 37° C. in a 5% CO2/95% air-humidified atmosphere, harvested and resuspended on ice in matrigel solution (50% RPMI+50% matrigel high concentration. BD#354248) to a final concentration of 1×10^6 cells/50 μL. Cell solution and injection needles (28 gauge) are kept on ice prior to injection and 50 μL of the cell solution injected in the subcutis of the dorsal medial area. Mice are divided into groups of five, seven, or nine, and freshly prepared test compound solutions are injected through the lateral tail vein under sterile conditions in a volume of 200 μL of phosphate-buffered saline (PBS). […] Growth of each s.c. tumor is followed by measuring the tumor three times per week during treatment and twice per week thereafter, until a volume of 1500 mm^3 is reached. Tumors are measured in two perpendicular directions using Vernier calipers, and their volumes are calculated as 0.5×L×W^2, where L=measurement of longest axis in mm and W=measurement of axis perpendicular to L in mm. As a general measure of gross toxicity, changes in body weights are determined on the same schedule as tumor volume measurements. Maximum % weight loss on any given day due to treatment is determined for each mouse. Survival of animals is monitored daily. Animals that are moribund (or unable to reach food or water) are euthanized by CO2 asphyxiation.

[2] = system: PSMA-positive LNCaP human xenografts; assay: Activity in vivo against PSMA+ tumor implanted in mice; details: for tumor growth in vivo compared to untreated animals / cures (cured/tested animals; no tumor growth during entire observation period): 2 μmol/kg, LNCaP xenografts; for tumor growth in vivo compared to untreated animals: TIW for 2 weeks, beginning on day 21 post tumor implant; for cures (cured/tested animals; no tumor growth during entire observation period): TIW
Text: Survival of animals is monitored daily.

PSMA = target: T1, PSMA (Homo sapiens, UniProt Q04609); type: binding
T1 construct: endogenous in cells; host or cells: LNCaP cells
Procedure: PSMA relative affinity assay. LNCaP cells are seeded in 12-well Corning Cell-BIND plates and allowed to form adherent monolayers overnight in RPMI/HIFCS. Spent incubation media is replaced with RPMI supplemented with 10% HIFCS and containing a standard PSMA binding ligand, such as 100 nM of 3H-PMPA or a competing compound, such as EC0652, Re-EC652, or ^99mTc-EC0652, in the absence and presence of increasing concentrations of test compound, such as unlabeled PMPA, or a compound described herein, such as EC1169 or EC1568, a negative control intermediate lacking a PSMA binding ligand which is used as a negative control. Cells are incubated for 1 h at 37° C. and then rinsed three times with 0.5 mL of PBS. Five hundred microliters of 1% sodium dodecylsulfate in PBS are added to each well; after 5 min, cell lysates are collected, transferred to individual tubes or to vials containing 5 mL of scintillation cocktail, and then counted for radioactivity. Cells exposed to only the standard PSMA binding ligand, such as 3H-PMPA, or competing compound, such as ^99mTc-EC0652, in FFRPMI (no competitor) are designated as negative controls, whereas cells exposed to the standard PSMA binding ligand, such as 3H-PMPA, plus 1 mM unlabeled PMPA or competing compound, such as ^99mTc-EC0652 plus Re-EC0652, serve as positive controls. Disintegrations per minute (DPMs) measured in the latter samples (representing nonspecific binding of label) are subtracted from the DPM values from all samples. Relative affinities are defined as the inverse molar ratio of compound required to displace 50% of the standard PSMA binding ligand, such as ^3H-PMPA, or the competing compound, such as ^99mTc-EC0652, bound to PSMA on LNCaP cells, and the relative affinity of the standard PSMA binding ligand, such as PMPA, or the competing compound, such as Re-EC0652, for PSMA is set to 1.

[3] = type: in vivo; details: rats, i.v., 0.33 and 0.51 μmol/kg, BIW, 2 weeks
[4] = PMPA = 1.0 (normalized), in 10% serum/FDRPMI
[5] = 10 mg/kg, BIW, 2 weeks, MTD, LNCaP-tumor bearing mice

T1 sequence (Q04609 whole entry): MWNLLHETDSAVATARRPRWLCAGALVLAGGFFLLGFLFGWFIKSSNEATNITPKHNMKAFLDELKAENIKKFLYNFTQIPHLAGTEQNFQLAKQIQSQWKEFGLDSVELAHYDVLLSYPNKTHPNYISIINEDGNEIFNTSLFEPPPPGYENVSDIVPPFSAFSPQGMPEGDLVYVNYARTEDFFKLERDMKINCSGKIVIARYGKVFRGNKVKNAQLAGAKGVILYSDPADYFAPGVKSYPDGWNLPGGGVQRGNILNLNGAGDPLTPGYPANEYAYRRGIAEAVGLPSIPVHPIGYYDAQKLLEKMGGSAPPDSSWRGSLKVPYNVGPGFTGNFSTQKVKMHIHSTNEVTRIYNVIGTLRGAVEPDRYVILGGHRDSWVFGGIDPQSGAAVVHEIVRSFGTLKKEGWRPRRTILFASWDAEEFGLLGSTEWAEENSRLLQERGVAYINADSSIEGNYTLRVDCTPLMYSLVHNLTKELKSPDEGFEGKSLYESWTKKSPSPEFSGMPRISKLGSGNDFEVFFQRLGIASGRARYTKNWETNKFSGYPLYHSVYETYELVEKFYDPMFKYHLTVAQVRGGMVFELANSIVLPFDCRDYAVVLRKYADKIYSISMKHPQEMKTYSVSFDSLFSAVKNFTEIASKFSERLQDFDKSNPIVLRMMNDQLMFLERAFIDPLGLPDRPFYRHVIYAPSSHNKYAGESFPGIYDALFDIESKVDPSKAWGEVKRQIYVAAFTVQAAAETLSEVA

SMILES: CCCCCCOCN(C(=O)[C@@H](NC(=O)[C@H]1CCCCN1C)C(C)CC)[C@H](C[C@@H](OC(C)=O)c1nc(C(=O)N[C@@H](Cc2ccc(O)cc2)C[C@H](C)C(=O)NNC(=O)OCCSSC[C@H](NC(=O)[C@H](CC(=O)O)NC(=O)[C@H](CC(=O)O)NC(=O)Cc2ccc(CNC(=O)NCCCC[C@H](NC(=O)N[C@@H](CCC(=O)O)C(=O)O)C(=O)O)cc2)C(=O)O)cs1)C(C)C (stereo partly shown) [EC1720]
- IC50 (LNCaP cells): 54.2 nM
- gross animal toxicity (weight loss, major organ tissue degeneration) ([1]; 2 μmol/kg, TIW, 2 weeks): do not exhibit gross animal toxicity

SMILES: CCCCCOCN(C(=O)[C@@H](NC(=O)[C@H]1CCCCN1C)[C@@H](C)CC)[C@H](C[C@@H](OC(C)=O)c1nc(C(=O)N[C@@H](Cc2ccc(O)cc2)C[C@H](C)C(=O)NNC(=O)OCCSSC[C@H](NC(=O)[C@H](CC(=O)O)NC(=O)[C@H](CC(=O)O)NC(=O)Cc2ccc(CNC(=O)NCCCC[C@H](NC(=O)N[C@@H](CCC(=O)O)C(=O)O)C(=O)O)cc2)C(=O)O)cs1)C(C)C [EC1719]
- tumor growth in vivo compared to untreated animals [2]: efficacious in decreasing tumor growth
- cures (cured/tested animals; no tumor growth during entire observation period) ([2]; 2 weeks): 2/7
- IC50: 37.5 nM
- gross animal toxicity (weight loss, major organ tissue degeneration) ([1]; 2 μmol/kg, TIW, 2 weeks): do not exhibit gross animal toxicity

SMILES: CCCC(=O)OCN(C(=O)[C@@H](NC(=O)[C@H]1CCCCN1C)C(C)CC)[C@H](C[C@@H](OC(C)=O)c1nc(C(=O)N[C@@H](Cc2ccc(O)cc2)C[C@H](C)C(=O)NNC(=O)OCCSSC[C@H](NC(=O)[C@H](Cc2ccccc2)NC(=O)[C@H](CC(=O)O)NC(=O)NCCCC[C@H](NC(C)=O)C(=O)O)C(=O)O)cs1)C(C)C (stereo partly shown) [EC1568, reference compound]
- Relative PSMA Binding Affinity (fold over PMPA = 1.0) (PSMA): 0 fold

SMILES: CCCC(=O)OCN(C(=O)[C@@H](NC(=O)[C@H]1CCCCN1C)C(C)CC)[C@H](C[C@@H](OC(C)=O)c1nc(C(=O)N[C@@H](Cc2ccc(O)cc2)C[C@H](C)C(=O)NNC(=O)OCCSSC[C@H](NC(=O)[C@H](CC(=O)O)NC(=O)[C@H](CC(=O)O)NC(=O)Cc2ccc(CNC(=O)NCCCC[C@H](NC(=O)N[C@@H](CCC(=O)O)C(=O)O)C(=O)O)cc2)C(=O)O)cs1)C(C)C (stereo partly shown) [EC1169]
- hematological toxicity in red blood cells and white blood cells [3]: significantly lower than untreated controls
- IC50 (LNCaP cells): 13 nM
- gross animal toxicity (weight loss, major organ tissue degeneration) ([1]; 2 μmol/kg, TIW, 2 weeks): absence of weight loss or major organ tissue degeneration
- gross toxicity compared to docetaxel ([1]; 2 μmol/kg, TIW, 2 weeks vs docetaxel 10 mg/kg, BIW, MTD): substantially less gross animal toxicity compared to docetaxel; also recorded: less toxic than docetaxel
- gross animal toxicity (weight loss, major organ tissue degeneration) ([1]; 2 μmol/kg, TIW, 2 weeks, listed as EC169): do not exhibit gross animal toxicity

SMILES: CCCOCN(C(=O)[C@@H](NC(=O)[C@H]1CCCCN1C)[C@@H](C)CC)[C@H](C[C@@H](OC(C)=O)c1nc(C(=O)N[C@@H](Cc2ccc(O)cc2)C[C@H](C)C(=O)NNC(=O)OCCSSC[C@H](NC(=O)[C@H](CC(=O)O)NC(=O)[C@H](CC(=O)O)NC(=O)Cc2ccc(CNC(=O)NCCCC[C@H](NC(=O)N[C@@H](CCC(=O)O)C(=O)O)C(=O)O)cc2)C(=O)O)cs1)C(C)C [EC1718]
- tumor growth in vivo compared to untreated animals [2]: efficacious in decreasing tumor growth
- cures (cured/tested animals; no tumor growth during entire observation period) ([2]; 2 weeks): 1/7
- IC50: 17.9 nM
- gross animal toxicity (weight loss, major organ tissue degeneration) ([1]; 2 μmol/kg, TIW, 2 weeks): do not exhibit gross animal toxicity

SMILES: O=C(O)CC[C@H](NC(=O)N[C@@H](CCCCNC(=O)NCc1ccc(CC(=O)N[C@@H](CC(=O)O)C(=O)N[C@@H](CC(=O)O)C(=O)NCC(=O)O)cc1)C(=O)O)C(=O)O [EC1168]
- Relative PSMA Binding Affinity (fold over PMPA = 1.0) (PSMA): 17 fold
- relative affinity for PSMA (PSMA; [4]): 17 ×

SMILES: CCCCCCCOCN(C(=O)[C@@H](NC(=O)[C@H]1CCCCN1C)C(C)CC)[C@H](C[C@@H](OC(C)=O)c1nc(C(=O)N[C@@H](Cc2ccc(O)cc2)C[C@H](C)C(=O)NNC(=O)OCCSSC[C@H](NC(=O)[C@H](CC(=O)O)NC(=O)[C@H](CC(=O)O)NC(=O)Cc2ccc(CNC(=O)NCCCC[C@H](NC(=O)N[C@@H](CCC(=O)O)C(=O)O)C(=O)O)cc2)C(=O)O)cs1)C(C)C (stereo partly shown) [EC1721]
- IC50 (LNCaP cells): 65.6 nM
- gross animal toxicity (weight loss, major organ tissue degeneration) ([1]; 2 μmol/kg, TIW, 2 weeks): do not exhibit gross animal toxicity

SMILES: CC(=O)O[C@@]12CO[C@@H]1C[C@H](O)[C@@]1(C)C(=O)[C@H](O)C3=C(C)[C@@H](OC(=O)[C@H](O)[C@@H](NC(=O)OC(C)(C)C)c4ccccc4)C[C@@](O)([C@@H](OC(=O)c4ccccc4)[C@H]21)C3(C)C [docetaxel, reference compound]
- anti-tumor activity [2, 5]: only modest anti-tumor activity
- cures (cured/tested animals) [2, 5]: 1/4
- gross toxicity ([1]; 10 mg/kg, BIW, 2 weeks, MTD): high gross toxicity
- weight loss ([1]; 10 mg/kg, BIW, 2 weeks, MTD): 18%

SMILES: O=C(O)CC[C@H](NC(=O)N[C@@H](CCC(=O)O)C(=O)O)C(=O)O [DUPA, reference compound]
- relative affinity for PSMA (PSMA): 0.05 ×

SMILES: CCCCOCN(C(=O)[C@@H](NC(=O)[C@H]1CCCCN1C)[C@@H](C)CC)[C@H](C[C@@H](OC(C)=O)c1nc(C(=O)N[C@@H](Cc2ccc(O)cc2)C[C@H](C)C(=O)NNC(=O)OCCSSC[C@H](NC(=O)[C@H](CC(=O)O)NC(=O)[C@H](CC(=O)O)NC(=O)Cc2ccc(CNC(=O)NCCCC[C@H](NC(=O)N[C@@H](CCC(=O)O)C(=O)O)C(=O)O)cc2)C(=O)O)cs1)C(C)C [EC1677]
- tumor growth in vivo compared to untreated animals [2]: efficacious in decreasing tumor growth
- cures (cured/tested animals; no tumor growth during entire observation period) ([2]; 2 weeks): 4/7
- IC50: 20.9 nM
- gross animal toxicity (weight loss, major organ tissue degeneration) ([1]; 2 μmol/kg, TIW, 2 weeks): do not exhibit gross animal toxicity

SMILES: CCCC(=O)OCN(C(=O)[C@@H](NC(=O)[C@H]1CCCCN1C)C(C)CC)[C@H](C[C@@H](OC(C)=O)c1nc(C(=O)N[C@@H](Cc2ccc(O)cc2)C[C@H](C)C(=O)NNC(=O)OCCSSC[C@H](NC(=O)[C@H](CC(=O)O)NC(=O)[C@H](CCCNC(=N)N)NC(=O)Cc2ccc(CNC(=O)NCCCC[C@H](NC(=O)N[C@@H](CCC(=O)O)C(=O)O)C(=O)O)cc2)C(=O)O)cs1)C(C)C (stereo partly shown) [EC1310]
- Relative PSMA Binding Affinity (fold over PMPA = 1.0) (PSMA): 10 fold

SMILES: O=C(O)CC[C@H](NC(=O)N[C@@H](CCCCNC(=O)NCc1ccc(CC(=O)N[C@@H](CC(=O)O)C(=O)N[C@@H](CC(=O)O)C(=O)N[C@@H](CS)C(=O)O)cc1)C(=O)O)C(=O)O [EC1167]
- Relative PSMA Binding Affinity (fold over PMPA = 1.0) (PSMA): 11 fold

SMILES: O=C(O)CC[C@H](CP(=O)(O)O)C(=O)O [PMPA, reference compound]
- relative affinity for PSMA (PSMA): 1.0 ×

SMILES: O=C(O)CC[C@H](NC(=O)N[C@@H](CCCCNC(=O)Nc1ccc(CC(=O)N[C@@H](CC(=O)O)C(=O)N[C@@H](CC(=O)O)C(=O)N[C@@H](CS)C(=O)O)cc1)C(=O)O)C(=O)O [EC1067]
- Relative PSMA Binding Affinity (fold over PMPA = 1.0) (PSMA): 30 fold
- relative affinity for PSMA (PSMA; [4]): 30 ×

SMILES: CCCC(=O)OCN(C(=O)[C@@H](NC(=O)[C@H]1CCCCN1C)C(C)CC)[C@H](C[C@@H](OC(C)=O)c1nc(C(=O)N[C@@H](Cc2ccc(O)cc2)C[C@H](C)C(=O)NNC(=O)OCCSSC[C@H](NC(=O)[C@@H](CC(=O)O)NC(=O)[C@@H](CC(=O)O)NC(=O)Cc2ccc(CNC(=O)NCCCC[C@H](NC(=O)N[C@@H](CCC(=O)O)C(=O)O)C(=O)O)cc2)C(=O)O)cs1)C(C)C (stereo partly shown) [EC1308]
- Relative PSMA Binding Affinity (fold over PMPA = 1.0) (PSMA): 20 fold

SMILES: O=C(O)CC[C@H](NC(=O)N[C@@H](CCCCNC(=O)Nc1ccc(CC(=O)O)cc1)C(=O)O)C(=O)O [EC1080]
- Relative PSMA Binding Affinity (fold over PMPA = 1.0) (PSMA): 6 fold
- relative affinity for PSMA (PSMA; [4]): 6 ×
